# Tests used:
# [1] = target: cAMP-dependent protein kinase catalytic subunit alpha (Homo sapiens, UniProt P17612); details: at 10 µM
# [2] = target: Serine/threonine-protein kinase pim-3 (Homo sapiens) (UniProt Q86V86); assay: Selectivity interaction (KinomeScan (DiscoverX)) EUB0000229b PIM3; details: at 10 µM
# [3] = target: T1, Serine/threonine-protein kinase Nek2 (Homo sapiens) (UniProt P51955); assay: Selectivity interaction (KinomeScan (DiscoverX)) EUB0000655a NEK2; details: at 10 µM
# T1 sequence (whole entry): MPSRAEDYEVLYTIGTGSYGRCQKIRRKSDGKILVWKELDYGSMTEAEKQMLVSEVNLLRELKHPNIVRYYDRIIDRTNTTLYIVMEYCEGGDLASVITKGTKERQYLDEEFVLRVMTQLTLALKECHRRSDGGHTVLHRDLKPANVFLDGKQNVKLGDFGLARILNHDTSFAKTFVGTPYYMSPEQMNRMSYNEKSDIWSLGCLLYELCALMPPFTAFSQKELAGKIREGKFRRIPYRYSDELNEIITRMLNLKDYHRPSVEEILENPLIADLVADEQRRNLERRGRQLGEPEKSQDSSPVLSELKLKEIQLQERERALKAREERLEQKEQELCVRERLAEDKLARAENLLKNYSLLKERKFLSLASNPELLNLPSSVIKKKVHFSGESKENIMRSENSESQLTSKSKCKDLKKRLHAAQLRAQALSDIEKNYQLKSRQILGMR
# [4] = target: T2, Ephrin type-B receptor 2 (Homo sapiens) (UniProt P29323); assay: Selectivity interaction (KinomeScan (DiscoverX)) EUB0001079a EPHB2; details: at 1 µM
# T2 sequence (whole entry): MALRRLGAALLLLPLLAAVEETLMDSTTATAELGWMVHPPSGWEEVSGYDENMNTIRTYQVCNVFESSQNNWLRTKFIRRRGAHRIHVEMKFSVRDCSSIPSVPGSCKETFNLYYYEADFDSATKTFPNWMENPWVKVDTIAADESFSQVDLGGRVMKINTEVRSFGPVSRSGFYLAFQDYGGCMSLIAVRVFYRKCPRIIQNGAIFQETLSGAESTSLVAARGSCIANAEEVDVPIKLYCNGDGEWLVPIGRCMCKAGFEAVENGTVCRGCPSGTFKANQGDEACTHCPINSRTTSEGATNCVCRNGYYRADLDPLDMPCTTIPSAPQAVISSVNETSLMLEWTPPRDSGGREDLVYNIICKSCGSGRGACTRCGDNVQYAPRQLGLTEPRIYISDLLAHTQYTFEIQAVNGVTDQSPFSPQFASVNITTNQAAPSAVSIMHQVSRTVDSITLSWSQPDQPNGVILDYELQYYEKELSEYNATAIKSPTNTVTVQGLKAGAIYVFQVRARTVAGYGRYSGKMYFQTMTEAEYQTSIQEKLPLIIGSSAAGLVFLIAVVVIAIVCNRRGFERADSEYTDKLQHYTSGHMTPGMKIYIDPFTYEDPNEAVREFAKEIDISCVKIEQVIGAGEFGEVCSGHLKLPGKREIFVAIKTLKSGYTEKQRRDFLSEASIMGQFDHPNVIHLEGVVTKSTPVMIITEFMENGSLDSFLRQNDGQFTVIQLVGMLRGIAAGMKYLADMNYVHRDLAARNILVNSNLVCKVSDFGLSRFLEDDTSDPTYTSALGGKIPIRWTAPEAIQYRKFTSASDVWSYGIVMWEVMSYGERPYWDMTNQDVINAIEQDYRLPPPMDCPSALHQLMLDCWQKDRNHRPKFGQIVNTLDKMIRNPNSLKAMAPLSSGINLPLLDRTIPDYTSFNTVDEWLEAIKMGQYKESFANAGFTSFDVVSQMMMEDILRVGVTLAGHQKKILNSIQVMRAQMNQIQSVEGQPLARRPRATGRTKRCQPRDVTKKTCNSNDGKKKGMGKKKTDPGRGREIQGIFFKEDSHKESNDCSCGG
# [5] = target: Protein kinase C gamma type (Homo sapiens) (UniProt P05129); assay: Selectivity interaction (Kinase panel (Invitrogen)) EUB0000639a PRKCG; details: at 200 nM
# [6] = target: T3, Scaffold protein ILK (Homo sapiens) (UniProt Q13418); assay: Selectivity interaction (ActivX KiNativ screen (kinase selectivity in THP-1 cell lysates)) EUB0000639a ILK; type: subcellular; details: lysate, at 0.2 µM
# T3 sequence (whole entry): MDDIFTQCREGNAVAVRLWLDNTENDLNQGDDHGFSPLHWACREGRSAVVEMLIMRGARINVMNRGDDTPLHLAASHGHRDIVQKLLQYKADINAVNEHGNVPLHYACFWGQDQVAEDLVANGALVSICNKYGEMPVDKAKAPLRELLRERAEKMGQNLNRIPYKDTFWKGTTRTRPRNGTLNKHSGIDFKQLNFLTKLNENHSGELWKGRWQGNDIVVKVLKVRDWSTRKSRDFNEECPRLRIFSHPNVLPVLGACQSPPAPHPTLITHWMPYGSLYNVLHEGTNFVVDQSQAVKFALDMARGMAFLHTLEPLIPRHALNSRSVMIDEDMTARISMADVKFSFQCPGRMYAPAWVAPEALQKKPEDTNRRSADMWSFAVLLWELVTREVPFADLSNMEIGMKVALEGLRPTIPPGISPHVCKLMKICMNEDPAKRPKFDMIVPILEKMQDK
# [7] = target: T4, Aurora kinase C (Homo sapiens) (UniProt Q9UQB9); assay: Selectivity interaction (KinomeScan (DiscoverX)) EUB0001049a AURKC; details: at 1 µM
# T4 sequence (whole entry): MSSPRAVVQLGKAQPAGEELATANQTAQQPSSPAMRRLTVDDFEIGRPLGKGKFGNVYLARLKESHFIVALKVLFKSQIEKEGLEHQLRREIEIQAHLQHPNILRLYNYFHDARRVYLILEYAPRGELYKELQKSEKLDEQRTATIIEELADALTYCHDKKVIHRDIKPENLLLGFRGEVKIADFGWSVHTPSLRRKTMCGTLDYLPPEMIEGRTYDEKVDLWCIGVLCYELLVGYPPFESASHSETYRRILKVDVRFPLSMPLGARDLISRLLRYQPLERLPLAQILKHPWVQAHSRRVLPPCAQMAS
# [8] = target: 5-hydroxytryptamine receptor 2A (Homo sapiens, UniProt P28223); assay: Selectivity interaction (Panel of non-epigenetic targets (kinases, GPCRs, ion channels, and transporters, Eurofins) ) EUB0000271b HTR2A; details: at 1 µM
# [9] = target: BMP-2-inducible protein kinase (Homo sapiens) (UniProt Q9NSY1); assay: Selectivity interaction (KinomeScan (DiscoverX)) EUB0000045b BMP2K
# [10] = target: Fibroblast growth factor receptor 1 (Homo sapiens, UniProt P11362); assay: Selectivity interaction (Kinase panel (literature)) EUB0001199aCl FGFR1; details: at 1 µM
# Fibroblast growth factor receptor 1, sequence (P11362 22-822 limits assumed): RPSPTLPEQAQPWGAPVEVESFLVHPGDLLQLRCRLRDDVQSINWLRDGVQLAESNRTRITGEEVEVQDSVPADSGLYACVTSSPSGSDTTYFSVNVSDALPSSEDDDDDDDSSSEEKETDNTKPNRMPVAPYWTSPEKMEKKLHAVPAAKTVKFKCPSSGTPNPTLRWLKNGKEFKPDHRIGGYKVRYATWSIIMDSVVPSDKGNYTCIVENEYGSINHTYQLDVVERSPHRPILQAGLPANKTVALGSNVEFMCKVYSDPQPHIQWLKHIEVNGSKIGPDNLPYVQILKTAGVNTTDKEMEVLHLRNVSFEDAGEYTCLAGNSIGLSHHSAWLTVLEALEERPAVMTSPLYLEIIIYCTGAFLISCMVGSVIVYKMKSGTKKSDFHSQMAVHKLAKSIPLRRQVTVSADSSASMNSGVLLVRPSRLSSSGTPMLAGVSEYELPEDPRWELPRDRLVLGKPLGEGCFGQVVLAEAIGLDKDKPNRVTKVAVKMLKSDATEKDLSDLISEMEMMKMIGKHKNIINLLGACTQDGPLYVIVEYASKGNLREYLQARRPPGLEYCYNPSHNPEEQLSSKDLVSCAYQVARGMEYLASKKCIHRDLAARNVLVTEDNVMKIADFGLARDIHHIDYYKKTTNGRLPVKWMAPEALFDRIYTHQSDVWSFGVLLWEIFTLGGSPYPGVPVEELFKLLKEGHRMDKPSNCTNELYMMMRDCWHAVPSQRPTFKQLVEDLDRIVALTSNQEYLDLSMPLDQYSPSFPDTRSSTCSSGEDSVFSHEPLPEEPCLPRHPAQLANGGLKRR
# BMP-2-inducible protein kinase (Homo sapiens), sequence (Q9NSY1 whole entry, looked up): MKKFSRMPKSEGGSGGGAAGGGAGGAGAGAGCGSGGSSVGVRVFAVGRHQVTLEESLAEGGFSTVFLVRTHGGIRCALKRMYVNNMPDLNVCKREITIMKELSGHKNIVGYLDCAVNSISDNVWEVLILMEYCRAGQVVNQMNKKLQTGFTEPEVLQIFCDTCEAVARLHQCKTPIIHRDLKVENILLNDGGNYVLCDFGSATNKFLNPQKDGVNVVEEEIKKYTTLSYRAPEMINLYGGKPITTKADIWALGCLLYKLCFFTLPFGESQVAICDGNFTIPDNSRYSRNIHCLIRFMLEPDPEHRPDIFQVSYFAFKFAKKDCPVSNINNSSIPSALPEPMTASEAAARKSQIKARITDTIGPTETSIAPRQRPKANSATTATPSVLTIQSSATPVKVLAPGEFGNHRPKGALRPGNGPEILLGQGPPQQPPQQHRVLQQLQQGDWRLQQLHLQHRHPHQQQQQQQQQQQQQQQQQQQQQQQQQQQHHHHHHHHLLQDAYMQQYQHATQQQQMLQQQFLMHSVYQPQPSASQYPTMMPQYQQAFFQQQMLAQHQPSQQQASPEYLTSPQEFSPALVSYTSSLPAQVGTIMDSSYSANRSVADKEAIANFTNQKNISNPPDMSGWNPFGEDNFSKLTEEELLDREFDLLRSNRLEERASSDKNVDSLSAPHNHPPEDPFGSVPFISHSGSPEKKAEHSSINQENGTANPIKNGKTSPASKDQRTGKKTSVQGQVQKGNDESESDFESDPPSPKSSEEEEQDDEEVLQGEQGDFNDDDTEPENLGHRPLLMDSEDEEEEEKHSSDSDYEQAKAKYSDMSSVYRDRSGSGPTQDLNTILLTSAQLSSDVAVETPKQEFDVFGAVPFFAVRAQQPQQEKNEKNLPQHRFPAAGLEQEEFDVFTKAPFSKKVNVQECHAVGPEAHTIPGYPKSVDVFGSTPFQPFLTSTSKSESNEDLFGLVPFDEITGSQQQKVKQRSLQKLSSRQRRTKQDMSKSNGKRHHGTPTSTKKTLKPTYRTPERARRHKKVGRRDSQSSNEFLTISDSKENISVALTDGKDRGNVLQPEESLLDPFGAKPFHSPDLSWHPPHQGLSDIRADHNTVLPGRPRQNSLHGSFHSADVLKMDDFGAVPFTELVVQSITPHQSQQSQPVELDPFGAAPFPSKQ
# 5-hydroxytryptamine receptor 2A, sequence (P28223 whole entry): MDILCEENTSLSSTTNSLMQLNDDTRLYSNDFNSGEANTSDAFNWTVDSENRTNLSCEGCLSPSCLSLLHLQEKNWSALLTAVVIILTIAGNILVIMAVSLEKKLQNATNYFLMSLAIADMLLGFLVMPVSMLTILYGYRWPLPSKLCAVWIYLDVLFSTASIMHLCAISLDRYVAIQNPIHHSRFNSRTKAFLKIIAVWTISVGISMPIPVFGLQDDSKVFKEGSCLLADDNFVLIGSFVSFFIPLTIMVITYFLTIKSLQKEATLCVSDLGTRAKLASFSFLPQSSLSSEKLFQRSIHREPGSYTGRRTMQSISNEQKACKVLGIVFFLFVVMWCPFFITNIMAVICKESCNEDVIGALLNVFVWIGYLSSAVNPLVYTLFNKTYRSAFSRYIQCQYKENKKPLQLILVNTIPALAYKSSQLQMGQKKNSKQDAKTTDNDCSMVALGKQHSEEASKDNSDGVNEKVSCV
structure (smiles),measurement,setting,value
CCN(CC)CCCCNc1ncc2cc(-c3cc(OC)cc(OC)c3)c(NC(=O)NC(C)(C)C)nc2n1,% of control,[1],100%
COc1cc(N(C)c2ccnc3ccc(C(F)(F)F)cc23)cc(OC)c1OC,% binding,[2],78%
CN(C)CCOc1ccc(-c2nc(-c3ccncc3)c(-c3ccc4c(c3)CC/C4=N\O)[nH]2)cc1,% of control,[3],100%
Nc1cnc(N2CCc3cc(S(=O)(=O)Nc4c(F)cc(Cl)cc4F)cc(N4CCCC4=O)c32)nc1 [TP-020n],% of control,[4],87%
CC[C@@H]1[C@H](F)C(=O)N[C@@H]1COc1nccc2cc(C(N)=O)c(OC)cc12 [ZIMLOVISERTIB],% of inhibition,[5],12.1%
same,% of inhibition,[6],-10.7%
COc1cc(Nc2nc(C)cc(-c3cnn4nc(OC)ccc34)n2)cc(C(F)(F)F)c1,% of control,[7],84%
Cc1cc(C)cc([C@@H]2c3cc(C)ccc3NC(=O)CN2C(=O)c2ccc(Br)s2)c1,% of inhibition,[8],12%
C=CC(=O)Nc1cc(-n2c(=O)ccc3cnc4ccc(-c5ccc(NS(C)(=O)=O)cc5)cc4c32)ccc1C,% of control,[9]; at 1 µM,76%
same,% of control,[9]; at 10 µM,39%
CN1Cc2nccc(-c3cn(C)nc3-c3ccc(F)cc3)c2C1=O,% of inhibition,[10],3%

# From ChEMBL document CHEMBL5465560, “Selectivity Literature for EUbOPEN Chemogenomic Library” (2024)
